Results taken from ChEMBL document CHEMBL4411307, “N,N'-diaryl-bishydrazones in a biphenyl platform: Broad spectrum antifungal agents” (Eur J Med Chem, 2019).
≈ marks a conversion by molar mass, not a printed value. Calls of active or inactive are those of the source. The rule behind the calls is not given here.

Columns and labels:
Candida albicans [1] = experiment: Antifungal activity against fluconazole/ITC-resistant Candida albicans ATCC 10231 measured after 48 hrs by CLSI M27-A3 protocol based method; format: functional; settings: ATCC 10231, 48 h
Enterococcus = experiment: Antibacterial activity against vancomycin-resistant Enterococcus; format: functional, organism-based
Candida albicans [2] = experiment: Antifungal activity against fluconazole/ITC-susceptible Candida albicans ATCC MYA-2310 measured after 48 hrs by CLSI M27-A3 protocol based method; format: functional; settings: ATCC MYA-2310, 48 h
Aspergillus nidulans = experiment: Antifungal activity against Aspergillus nidulans ATCC 38163 measured after 48 hrs by CLSI M38-A2 protocol based method; format: functional; settings: ATCC 38163, 48 h
Nakaseomyces glabratus = experiment: Antifungal activity against Candida glabrata ATCC 2001 measured after 48 hrs by CLSI M27-A3 protocol based method; format: functional; settings: CBS 138, 48 h
Listeria monocytogenes = experiment: Antibacterial activity against Listeria monocytogenes; format: functional, organism-based
Staphylococcus aureus = experiment: Antibacterial activity against methicillin-resistant Staphylococcus aureus; format: functional, organism-based
Candida albicans [3] = experiment: Antifungal activity against fluconazole/ITC-resistant Candida albicans ATCC 90819 measured after 48 hrs by CLSI M27-A3 protocol based method; format: functional; settings: ATCC 90819, 48 h
Aspergillus terreus = experiment: Antifungal activity against Aspergillus terreus ATCC MYA-3633 measured after 48 hrs by CLSI M38-A2 protocol based method; format: functional; settings: ATCC MYA-3633, 48 h
Candida parapsilosis = experiment: Antifungal activity against Candida parapsilosis ATCC 22019 measured after 48 hrs by CLSI M27-A3 protocol based method; format: functional; settings: Lodderomyces parapsilosis, ATCC 22019, 48 h
Pichia kudriavzevii = experiment: Antifungal activity against Candida krusei ATCC 6258 measured after 48 hrs by CLSI M27-A3 protocol based method; format: functional; settings: ATCC 6258, 48 h
Candida albicans [4] = experiment: Antifungal activity against fluconazole/ITC-resistant Candida albicans ATCC MYA-1237 measured after 48 hrs by CLSI M27-A3 protocol based method; format: functional; settings: ATCC MYA-1237, 48 h
Candida albicans [5] = experiment: Antifungal activity against fluconazole/ITC-resistant Candida albicans ATCC MYA-1003 measured after 48 hrs by CLSI M27-A3 protocol based method; format: functional; settings: ATCC MYA-1003, 48 h
Aspergillus flavus = experiment: Antifungal activity against Aspergillus flavus ATCC MYA-3631 measured after 48 hrs by CLSI M38-A2 protocol based method; format: functional; settings: ATCC MYA-3631, 48 h
Candida albicans [6] = experiment: Antifungal activity against fluconazole/ITC-resistant Candida albicans ATCC 64124 measured after 48 hrs by CLSI M27-A3 protocol based method; format: functional; settings: ATCC 64124, 48 h
Candida albicans [7] = experiment: Antifungal activity against fluconazole/ITC-susceptible Candida albicans ATCC MYA-2876 measured after 48 hrs by CLSI M27-A3 protocol based method; format: functional; settings: ATCC MYA-2876, 48 h

| Structure (SMILES) | MIC (Candida albicans [1]) | Activity (Enterococcus) | MIC (Candida albicans [2]) | MIC (Aspergillus nidulans) | MIC (Nakaseomyces glabratus) | Activity (Listeria monocytogenes) | Activity (Staphylococcus aureus) | MIC (Candida albicans [3]) | MIC (Aspergillus terreus) | MIC (Candida parapsilosis) | MIC (Pichia kudriavzevii) | MIC (Candida albicans [4]) | MIC (Candida albicans [5]) | MIC (Aspergillus flavus) | MIC (Candida albicans [6]) | MIC (Candida albicans [7]) |
| --- | --- | --- | --- | --- | --- | --- | --- | --- | --- | --- | --- | --- | --- | --- | --- | --- |
| Fc1cccc(N/N=C/c2ccc(-c3ccc(/C=N/Nc4cccc(F)c4F)cc3)cc2)c1F | 31.3 µg/mL (≈ 67.7 µM) | inactive | > 31.3 µg/mL | > 31.3 µg/mL | > 31.3 µg/mL | inactive | inactive | > 31.3 µg/mL | > 31.3 µg/mL | > 31.3 µg/mL | > 31.3 µg/mL | > 31.3 µg/mL | > 31.3 µg/mL | > 31.3 µg/mL | > 31.3 µg/mL | > 31.3 µg/mL |
| Fc1cc(F)cc(N/N=C/c2ccc(-c3cccc(/C=N/Nc4cc(F)cc(F)c4)c3)cc2)c1 | 3.9 µg/mL (≈ 8.43 µM) | inactive | > 31.3 µg/mL | > 31.3 µg/mL | > 31.3 µg/mL | inactive | inactive | > 31.3 µg/mL | > 31.3 µg/mL | > 31.3 µg/mL | > 31.3 µg/mL | 31.3 µg/mL (≈ 67.7 µM) | 31.3 µg/mL (≈ 67.7 µM) | > 31.3 µg/mL | 15.6 µg/mL (≈ 33.7 µM) | 31.3 µg/mL (≈ 67.7 µM) |
| CC(C)(C)N/N=C/c1ccc(-c2ccc(/C=N/NC(C)(C)C)cc2)cc1 | 31.3 µg/mL (≈ 89.3 µM) | inactive | 31.3 µg/mL (≈ 89.3 µM) | 31.3 µg/mL (≈ 89.3 µM) | 15.6 µg/mL (≈ 44.5 µM) | inactive | inactive | > 31.3 µg/mL | > 31.3 µg/mL | > 31.3 µg/mL | 31.3 µg/mL (≈ 89.3 µM) | 31.3 µg/mL (≈ 89.3 µM) | > 31.3 µg/mL | > 31.3 µg/mL | 31.3 µg/mL (≈ 89.3 µM) | > 31.3 µg/mL |
| N=C(N)N/N=C/c1ccc(-c2ccc(/C=N/NC(=N)N)cc2)cc1 | 31.3 µg/mL (≈ 97.1 µM) |  | > 31.3 µg/mL | > 31.3 µg/mL | > 31.3 µg/mL |  |  | > 31.3 µg/mL | > 31.3 µg/mL | 3.9 µg/mL (≈ 12.1 µM) | 15.6 µg/mL (≈ 48.4 µM) | > 31.3 µg/mL | 15.6 µg/mL (≈ 48.4 µM) | > 31.3 µg/mL | > 31.3 µg/mL | > 31.3 µg/mL |
| CC(C)Oc1ccc(N/N=C/c2ccc(-c3ccc(/C=N/Nc4ccc(OC(C)C)cc4)cc3)cc2)cc1 | > 31.3 µg/mL | inactive | > 31.3 µg/mL | > 31.3 µg/mL | > 31.3 µg/mL | inactive | inactive | > 31.3 µg/mL | > 31.3 µg/mL | > 31.3 µg/mL | > 31.3 µg/mL | > 31.3 µg/mL | > 31.3 µg/mL | > 31.3 µg/mL | > 31.3 µg/mL | > 31.3 µg/mL |
| Clc1ccc(N/N=C/c2ccc(-c3ccc(/C=N/Nc4ccc(Cl)cc4)cc3)cc2)cc1 | > 31.3 µg/mL | inactive | > 31.3 µg/mL | > 31.3 µg/mL | > 31.3 µg/mL | inactive | inactive | > 31.3 µg/mL | 31.3 µg/mL (≈ 68.1 µM) | 31.3 µg/mL (≈ 68.1 µM) | 31.3 µg/mL (≈ 68.1 µM) | > 31.3 µg/mL | > 31.3 µg/mL | > 31.3 µg/mL | > 31.3 µg/mL | > 31.3 µg/mL |
| C/C(=N\NC(=N)N)c1ccc(-c2ccc(/C(C)=N/NC(=N)N)cc2)cc1 | 3.9 µg/mL (≈ 11.1 µM) |  | 15.6 µg/mL (≈ 44.5 µM) | 15.6 µg/mL (≈ 44.5 µM) | 7.8 µg/mL (≈ 22.3 µM) |  |  | 3.9 µg/mL (≈ 11.1 µM) | > 31.3 µg/mL | 1.95 µg/mL (≈ 5.56 µM) | 3.9 µg/mL (≈ 11.1 µM) | 15.6 µg/mL (≈ 44.5 µM) | 15.6 µg/mL (≈ 44.5 µM) | > 31.3 µg/mL | 3.9 µg/mL (≈ 11.1 µM) | 15.6 µg/mL (≈ 44.5 µM) |
| COc1ccc(N/N=C(\C)c2ccc(-c3ccc(/C(C)=N/Nc4ccc(OC)cc4)cc3)cc2)cc1 | 15.6 µg/mL (≈ 32.6 µM) | inactive | 15.6 µg/mL (≈ 32.6 µM) | > 31.3 µg/mL | 7.8 µg/mL (≈ 16.3 µM) | inactive | inactive | 31.3 µg/mL (≈ 65.4 µM) | > 31.3 µg/mL | > 31.3 µg/mL | 15.6 µg/mL (≈ 32.6 µM) | 7.8 µg/mL (≈ 16.3 µM) | 7.8 µg/mL (≈ 16.3 µM) | > 31.3 µg/mL | 15.6 µg/mL (≈ 32.6 µM) | 15.6 µg/mL (≈ 32.6 µM) |
